# According to patent publication US7884136B2, “Modified-release formulations of a bupropion salt” (Biovail Laboratories International S.R.L., priority 2005, dated 2011):
# Key:
# Format in all cases: physicochemical
# [1] = Release of bupropion base from bupropion HCl and HBr
# Method: It was previously observed that when 150 mg of bupropion HCl was tested for its release of bupropion, the base value that was released was 130 mg.
# [2] = Accelerated stability study of bupropion HBr, closed bottles, 40° C./75% RH, 3 and 6 months, HPLC; settings: 40° C./75% RH
# Method: The samples were prepared in closed bottles and placed in the stability chamber. HPLC analysis was conducted on the samples prior to placing them in the stability chamber (time 0), and after 3 months and 6 months. The amounts of the main degradation products present at time 0 were compared with those amounts present after 3 months and 6 months. […] For each sample tested, at each time period, two different HPLC assays were run. The first assay labelled chromatographic purity A, measured the percentage of three impurities 3′chloropropiophenone, 3′-Chloro-2-bromopropiophenone and 3′-Chlorobenzoic acid. The second assay, labelled chromatographic purity B, measured the percentage of 2-N-(tert-Butyl)-aminopropiophenone, a single unknown impurity and the total unknown impurities.
# [3] = Shelf life stability program of bupropion HBr, 25° C./60% RH, 3 and 6 months, HPLC; settings: 25° C./60% RH, 3 and 6 months
# Method: The stability of bupropion HBr was studied over a longer term under conditions meant to approximate standard storage or shelf conditions. Samples were prepared in closed containers and subjected to long-term storage at 25° C.+2° C. and 60%+5% RH in a stability chamber. The samples were analyzed by HPLC prior to being placed in the stability chamber (time 0) and after 3 months and 6 months. The amounts of the main degradation products present at time 0 were compared with the amounts present at 3 months and 6 months. As shown in Table 77-79 three different batches of bupropion HBr were tested. As in Example 10 each sample was tested under two HPLC assay conditions to identify 6 impurities or groups of impurities as described in Example 10.
compound,measurement,setting,value
"Br.CC(NC(C)(C)C)C(=O)c1cccc(Cl)c1 (stereo not shown) [Bupropion HBr, bupropion hydrobromide]",Base value of bupropion released,[1]; 150 mg of the salt tested,112 mg
same,Base value of bupropion released,[1]; 174 mg of the salt tested,130 mg
same,"Total percentage of impurities, change",[2]; 3-month and 6-month,did not change
same,"Impurity 3′-chloropropiophenone, trend","[2]; 3 and 6 months, three batches",slight increase
same,Stability under the accelerated stability test conditions,[2]; 6 months,highly stable
same,"Other impurities, trend",[3],did not show an increasing trend over time
same,"Impurity 3′-chloropropiophenone, trend",[3]; three batches,increased slightly over time
